# Laboratory results reported in the supplement of paper PMC10307832.
# Tests used:
# Assay in all cases: relative viability (nuclei count vs DMSO), 5 days (fraction); higher = more cells survive
# RAF265 = compound: Cn1c(Nc2ccc(C(F)(F)F)cc2)nc2cc(Oc3ccnc(-c4ncc(C(F)(F)F)[nH]4)c3)ccc21 [RAF265]
# In short: (§1)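 Acceptance criteria were a control CV below 25% and at least one doubling per plate. Lung cancer cell lines in 1536-well plates got five library-drug doses (not always all listed) √10 apart by pinning and were left 5 days with no medium change. Viability divides treated-well nuclei by vehicle-well nuclei and is the median across plates. Nuclei were counted by MetaXpress from 4× Hoechst images.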
# IPA-3 = compound: C1=CC=C2C(=C1)C=CC(=C2SSC3=C(C=CC4=CC=CC=C43)O)O [IPA-3]
# In short: as §1
# Doramapimod = compound: Cc1ccc(-n2nc(C(C)(C)C)cc2NC(=O)Nc2ccc(OCCN3CCOCC3)c3ccccc23)cc1 [Doramapimod]
# In short: as §1
Cell Line,relative viability (RAF265; 0.01 µM),relative viability (RAF265; 0.03162 µM),relative viability (RAF265; 0.1 µM),relative viability (RAF265; 0.3162 µM),relative viability (RAF265; 1 µM),relative viability (IPA-3; 0.2 µM),relative viability (IPA-3; 0.6325 µM),relative viability (IPA-3; 2 µM),relative viability (IPA-3; 6.325 µM),relative viability (IPA-3; 20 µM),relative viability (Doramapimod; 0.02 µM),relative viability (Doramapimod; 0.06325 µM),relative viability (Doramapimod; 0.2 µM),relative viability (Doramapimod; 0.6325 µM),relative viability (Doramapimod; 2 µM)
SK-LU-1,1.1,0.893,0.858,0.56,0.494,1.35,0.981,1.08,0.985,1.16,1.02,1.07,1.11,1.14,1.12
LOU-NH91,1.05,0.976,0.905,0.733,0.753,0.953,0.94,1.01,1.01,1.19,1.09,0.996,1.05,1.08,0.691
LXF-289,1.02,1.1,0.976,0.807,0.768,1.08,0.999,1.04,1.06,1.13,0.999,0.986,1.01,0.982,0.943
NCI-H1299,1.08,0.97,0.961,0.793,0.616,1.1,0.995,1.02,0.94,0.98,1.04,1.02,1.02,1.05,0.967
HARA,1.07,0.982,0.949,0.693,0.584,1.28,0.977,1.04,1.05,1.21,1.02,0.948,0.811,1.19,0.754
LU99A,0.971,0.987,0.705,0.492,0.373,1.02,0.89,0.932,0.919,0.98,0.944,0.906,1.03,1,0.949
201T,1.04,0.99,1.02,0.977,0.992,0.998,0.975,0.958,0.993,1.09,1,1.02,0.975,1.15,0.957
HCC-827,1.03,0.963,1.05,,0.903,1.07,1.05,1.05,0.955,0.978,1.02,1.05,1.07,0.902,0.863
NCI-H1666,1.07,1.01,1.01,1.01,0.795,1.15,0.978,1.02,1.08,1.12,1.06,1.03,1,1.11,1.01
NCI-H1915,0.987,0.915,0.757,0.489,0.3,1.1,0.997,0.989,0.96,1.01,0.986,0.994,1.04,0.99,0.885
NCI-H2009,0.997,0.922,0.907,0.866,0.649,1.17,0.969,1.01,0.984,0.874,1.03,1.14,1.11,1.17,1.02
ChaGo-K-1,0.977,1.04,1.01,0.865,0.789,1.05,0.96,0.96,1.06,1.07,0.988,1.09,0.983,0.975,0.916
COR-L 105,1.08,1.05,0.954,0.463,0.563,1.2,0.882,0.901,0.984,0.827,0.861,0.93,0.935,1.1,0.993
NCI-H2170,0.957,0.896,0.877,0.755,0.716,1.08,1.01,0.999,0.878,0.988,0.923,0.98,0.996,0.972,0.943
A549,1.01,0.926,0.967,0.667,0.412,1.18,0.962,1.01,1.05,1.16,0.956,0.976,0.951,0.999,0.878
SW 1573,1.18,0.89,0.955,0.98,0.573,1.13,0.919,1.01,0.94,0.696,0.946,0.9,0.844,0.952,0.838
NCI-H1975,0.932,0.956,0.602,0.442,0.406,1.06,0.924,0.957,1.1,0.993,1.03,1.04,1.08,1.05,1.04
Calu-6,0.97,0.842,0.791,0.505,0.347,1.1,0.971,0.984,0.998,1.04,0.995,0.979,1.04,1.09,1.01
SW 900,1.06,0.792,0.856,0.679,0.527,1.13,0.698,0.686,0.775,0.775,0.893,1.03,0.941,0.945,0.737
NCI-H1623,1.06,0.945,1.09,0.456,0.798,1.07,0.943,0.971,0.951,0.993,0.986,0.982,0.944,0.775,0.88
NCI-H3122,1.02,1.1,1.05,0.885,0.943,1.02,0.98,0.981,1.04,0.999,0.995,1,0.995,0.989,1
NCI-H2347,1.16,0.975,0.984,0.822,0.528,1.21,0.962,1,1.01,1.1,1.05,0.973,1.01,0.964,0.959
